The subject of assay [1] is pregnancy maintenance. As to the kind of experiment: Mouse pregnancy maintenance test after s.c. administration (gestagenic activity). It counts as in vivo. The source says:
(§1) Data for 5α-reductase-type 2-activity in genital dermal homogenates and in vivo data for gestagenic activity are presented by way of example in Tables 1 and 2 below.

Assay [2] deals with T1, Progesterone-receptor (Oryctolagus cuniculus, UniProt P06186).
T1 construct: from tissue; host or cells: uterus cytosol of primed rabbits
T1 sequence (P06186 1-930): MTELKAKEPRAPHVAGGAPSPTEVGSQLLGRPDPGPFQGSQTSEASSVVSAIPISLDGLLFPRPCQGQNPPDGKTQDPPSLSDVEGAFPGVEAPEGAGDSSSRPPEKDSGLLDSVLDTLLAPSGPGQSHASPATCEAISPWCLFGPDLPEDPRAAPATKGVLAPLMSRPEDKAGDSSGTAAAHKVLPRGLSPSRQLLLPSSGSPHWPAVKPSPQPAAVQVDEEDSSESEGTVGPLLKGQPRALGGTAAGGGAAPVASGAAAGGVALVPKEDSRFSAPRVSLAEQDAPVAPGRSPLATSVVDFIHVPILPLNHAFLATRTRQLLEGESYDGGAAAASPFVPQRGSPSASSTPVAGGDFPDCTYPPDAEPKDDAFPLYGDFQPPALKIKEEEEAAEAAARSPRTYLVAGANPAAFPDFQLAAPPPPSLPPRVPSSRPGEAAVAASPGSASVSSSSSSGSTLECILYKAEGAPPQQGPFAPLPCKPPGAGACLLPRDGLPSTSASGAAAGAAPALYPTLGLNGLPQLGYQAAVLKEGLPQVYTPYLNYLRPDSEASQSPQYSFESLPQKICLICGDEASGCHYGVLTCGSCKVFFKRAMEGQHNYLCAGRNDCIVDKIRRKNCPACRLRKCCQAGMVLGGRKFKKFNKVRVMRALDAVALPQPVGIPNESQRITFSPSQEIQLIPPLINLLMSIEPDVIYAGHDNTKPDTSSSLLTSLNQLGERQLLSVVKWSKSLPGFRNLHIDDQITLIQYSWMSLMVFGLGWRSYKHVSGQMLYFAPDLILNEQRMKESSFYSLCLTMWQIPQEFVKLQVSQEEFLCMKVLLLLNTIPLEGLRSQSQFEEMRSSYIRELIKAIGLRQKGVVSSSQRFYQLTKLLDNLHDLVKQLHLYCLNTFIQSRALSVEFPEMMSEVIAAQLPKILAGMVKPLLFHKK
Kind of assay: Progesterone-receptor binding to uterus-cytosol, tracer 3H-ORG 2058. The conditions noted are these: rabbits, primed, 0-4° C., 18 hours, reference progesterone = 100%.

The target of assay [3] is T2, 5α-Reductase-Type 2 (Homo sapiens, UniProt P31213).
T2 construct: 5α-Reductase-Type 2-Activity in Genital Dermal Homogenates; from tissue; host or cells: genital dermal (skin) homogenate
T2 sequence (P31213 1-254): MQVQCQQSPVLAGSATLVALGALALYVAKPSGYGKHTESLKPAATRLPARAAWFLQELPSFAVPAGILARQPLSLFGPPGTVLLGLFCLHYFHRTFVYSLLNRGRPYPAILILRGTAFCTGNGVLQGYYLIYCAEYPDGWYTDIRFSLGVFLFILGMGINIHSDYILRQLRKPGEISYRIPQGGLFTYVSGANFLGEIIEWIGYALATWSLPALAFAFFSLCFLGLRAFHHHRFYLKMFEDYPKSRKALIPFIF
Kind of assay: 5α-Reductase-type 2-activity in genital dermal homogenates. The conditions noted are these: optimized conditions at pH 5.5. The format is biochemical.
Source text: as §1

For `C[C@]12CC[C@H]3[C@@H](CCC4=C(Cl)C(=O)CC[C@@H]43)[C@@H]1CC/C2=C\Cl` [Compound 1, E-17-Chloromethylene-4-chloro-estr-4-en-3-one], the Pregnancy rate achieved is on record as 0/5 in assay [1] (0.1 mg/animal/day s.c.) and 5/5 in assay [1] (1.0 mg/animal/day s.c.). The “PR, Progesterone = 100% (progesterone-receptor binding)” value in assay [2] is listed as 60%. Also, in assay [3], the IC50 turned out to be 250 nM.

Broadly, the IC50 is the point on the concentration scale where inhibition reaches its midpoint. A high value points to lower potency.

(Values after patent US6855836B2, “17-Methylene steroids, process for their production and pharmaceutical compositions that contain these compounds” (Jenapharm GmbH & Co. KG, priority 2000, dated 2005).)
